From PMC11070402, “New antiproliferative 3-substituted oxindoles inhibiting EGFR/VEGFR-2 and tubulin polymerization” (Molecular Diversity, 2023)
Where two headings read alike, the source gives them in different places.

Tests used:
[1] = test system: HOP-92 (non-small cell lung cancer cell line); assay: NCI one-dose assay, HOP-92; assay type: cell-based; details: Homo sapiens; HOP-92 (Non-Small Cell Lung Cancer), 10 uM single dose; read-out: Growth inhibition %
Procedure: (§1) All novel scaffolds 6a–j were carefully selected by the National Cancer Institute (NCI), Bethesda, USA, to elucidate their cytotoxic activity versus 60 human cancer cell lines at 10 µM as a single-dose concentration after a 48 h incubation period.
(§2) National Cancer Institution selected all the synthesized 6a–j (NCI), Bethesda, USA, for in vitro one-dose antitumor assay. The methodology protocol for the NCI anticancer screening was reported in detail elsewhere (http://www.dtp.nci.nih.gov). The anticancer assay was performed in full NCI 60 cell lines extracted from nine tumor cell lines, including leukemia, melanoma, lung, colon, CNS, ovarian, renal, prostate, and breast cancer cell lines.

[2] = target: T1, VEGFR-2 (KDR) (Homo sapiens, UniProt P35968); assay: VEGFR-2 kinase assay kit (Kinase-Glo MAX); assay type: biochemical
T1 construct: purchased
T1 sequence (P35968 20-1356): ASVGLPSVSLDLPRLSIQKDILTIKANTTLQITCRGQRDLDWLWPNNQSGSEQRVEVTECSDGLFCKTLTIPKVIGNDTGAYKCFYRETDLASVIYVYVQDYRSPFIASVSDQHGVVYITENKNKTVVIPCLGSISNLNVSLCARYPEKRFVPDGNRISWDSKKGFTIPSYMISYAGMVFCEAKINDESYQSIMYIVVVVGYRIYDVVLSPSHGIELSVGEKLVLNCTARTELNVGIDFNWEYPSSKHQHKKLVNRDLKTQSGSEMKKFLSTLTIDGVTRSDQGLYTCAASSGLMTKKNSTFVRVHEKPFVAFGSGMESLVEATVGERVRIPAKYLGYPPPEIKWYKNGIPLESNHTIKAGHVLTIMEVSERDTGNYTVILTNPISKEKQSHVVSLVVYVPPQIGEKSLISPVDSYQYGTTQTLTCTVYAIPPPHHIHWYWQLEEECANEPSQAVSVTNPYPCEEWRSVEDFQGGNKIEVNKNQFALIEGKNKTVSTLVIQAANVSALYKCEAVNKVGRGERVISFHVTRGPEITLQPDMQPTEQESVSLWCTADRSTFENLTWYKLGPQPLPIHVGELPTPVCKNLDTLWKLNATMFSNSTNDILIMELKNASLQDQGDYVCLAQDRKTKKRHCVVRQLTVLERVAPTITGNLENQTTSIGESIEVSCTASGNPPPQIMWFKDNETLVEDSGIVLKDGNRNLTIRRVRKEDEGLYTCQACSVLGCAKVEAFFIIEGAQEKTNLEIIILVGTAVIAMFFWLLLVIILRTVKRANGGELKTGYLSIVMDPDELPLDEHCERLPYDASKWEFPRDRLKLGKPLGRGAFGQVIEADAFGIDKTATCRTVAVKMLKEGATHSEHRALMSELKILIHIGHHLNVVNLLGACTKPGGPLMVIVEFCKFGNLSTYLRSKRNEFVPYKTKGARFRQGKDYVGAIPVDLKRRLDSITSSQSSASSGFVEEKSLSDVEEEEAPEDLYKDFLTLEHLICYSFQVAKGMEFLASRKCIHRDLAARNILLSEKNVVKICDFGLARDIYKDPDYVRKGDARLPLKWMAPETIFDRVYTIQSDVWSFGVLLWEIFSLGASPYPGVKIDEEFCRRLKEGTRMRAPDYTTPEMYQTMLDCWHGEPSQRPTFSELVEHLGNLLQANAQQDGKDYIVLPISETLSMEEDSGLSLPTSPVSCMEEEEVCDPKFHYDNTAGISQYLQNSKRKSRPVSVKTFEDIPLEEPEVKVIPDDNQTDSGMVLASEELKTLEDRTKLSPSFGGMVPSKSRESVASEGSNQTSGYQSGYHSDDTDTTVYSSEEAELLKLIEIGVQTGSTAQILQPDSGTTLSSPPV
Procedure: The receptor tyrosine kinases, namely EGFR, VEGFR-2, and PDGFR_ẞ Kinases Assay Kits, are designed to measure EGFR, VEGFR-2, and PDGFR_ẞ Kinases’ activities for screening and profiling applications using Kinase-Glo® MAX as a detection reagent. The EGFR, VEGFR-2, and PDGFR_ẞ Kinases Assay Kits come in a convenient 96-well format, with enough purified recombinant EGFR enzyme, EGFR substrate, ATP, and kinase assay buffer for 100 enzyme reactions. The master mixture (25 µl per well) was equipped out of Kinase assay buffer (6 µl), ATP (500 µM, 1 µl), PTK substrate (50x, 1 µl), and water (17 µl) and transferred into each well. […] EGFR, VEGFR-2, and PDGFR_ẞ Kinases were softened on ice. Its tube was spun briefly to recover its full content of the tube. These enzymes were diluted with 1 × Kinase assay buffer to 1 ng/ µl. The reaction was initiated by adding 20 µl of diluted EGFR, VEGFR-2, and PDGFR_ẞ enzymes to the wells designated “Positive Control” and “Test Inhibitor Control.” The plate was incubated at 30 °C for 40 min. After the 40-min reaction, the Kinase-Glo Max (50 µl) reagent was added to each well. The plate was covered with aluminum foil and incubated at room temperature for 15 min, and the luminescence was measured using the microplate reader.

[3] = test system: SR; assay: NCI one-dose assay, SR; assay type: cell-based; details: Homo sapiens; SR; 10 µM single dose, 48 h incubation; read-out: cell growth inhibition % (GI %)
Procedure: as §1, §2

[4] = test system: 60 human cancer cell lines; assay: NCI one-dose assay against sixty NCI cancer cell lines; assay type: cell-based
Procedure: as §1, §2

[5] = test system: MCF-7; assay: NCI one-dose assay, MCF-7; assay type: cell-based, human; details: MCF-7, 10 µM single dose, 48 h incubation
Procedure: as §1, §2

[6] = test system: MOLT-4; assay: NCI one-dose assay, MOLT-4; assay type: cell-based; details: Homo sapiens; MOLT-4; 10 µM single dose, 48 h incubation; read-out: cell growth inhibition % (GI %)
Procedure: as §1, §2

[7] = test system: SNB-75 cells (CNS cancer cell line); assay: NCI one-dose assay, SNB-75; assay type: cell-based; details: Homo sapiens; SNB-75 (CNS Cancer), 10 uM single dose; read-out: Growth inhibition %
Procedure: as §1, §2

[8] = test system: SK-MEL-5; assay: NCI one-dose assay, SK-MEL-5; assay type: cell-based; details: Homo sapiens; SK-MEL-5; 10 µM single dose, 48 h incubation; read-out: cell growth inhibition % (GI %)
Procedure: as §1, §2

[9] = test system: LOX IMVI; assay: NCI one-dose assay, LOX IMVI; assay type: cell-based; details: Homo sapiens; LOX IMVI; 10 µM single dose, 48 h incubation; read-out: cell growth inhibition % (GI %)
Procedure: as §1, §2

[10] = test system: K-562; assay: NCI one-dose assay, K-562; assay type: cell-based; details: Homo sapiens, K562; K-562; 10 µM single dose, 48 h incubation; read-out: cell growth inhibition % (GI %)
Procedure: as §1, §2

[11] = test system: NCI-H23; assay: NCI one-dose assay, NCI-H23; assay type: cell-based; details: Homo sapiens; NCI-H23; 10 µM single dose, 48 h incubation; read-out: cell growth inhibition % (GI %)
Procedure: as §1, §2

[12] = test system: UO-31; assay: NCI one-dose assay, UO-31; assay type: cell-based; details: Homo sapiens; UO-31; 10 µM single dose, 48 h incubation; read-out: cell growth inhibition % (GI %)
Procedure: as §1, §2

[13] = test system: MCF-7 (human breast cancer); assay: Cytotoxicity versus MCF-7 cell line (MTT assay); details: MCF7, read-out: MCF-7 (IC50 ± SD, uM)
Procedure: IC50 values were recorded using the Boltzman sigmoidal concentration–response curve equation using the nonlinear regression fitting models by GraphPad, Prism version 5 (GraphPad Software Inc., La Jolla, CA). MTT assay for MCF-7 cell lines. Cell line cells were obtained from American Type Culture Collection. Cells were cultured using DMEM media (Invitrogen/Life Technologies) supplemented with 10% FBS (Hyclone), 10 ug/ml of insulin (Sigma), and 1% penicillin–streptomycin. All the other chemicals and reagents were purchased from Sigma or Invitrogen. Cells were seeded in plates (cells density 1.2–1.8 × 10,000 cells/well) in a volume of 100 μl full-growth medium + 100 μl of the tested scaffold per well in a 96-well plate for 24 h before the application of the MTT assay protocol as reported, supplementary information.

[14] = test system: A549/ATCC; assay: NCI one-dose assay, A549/ATCC; assay type: cell-based; details: Homo sapiens, 10 µM single dose, 48 h incubation, read-out: cell growth inhibition % (GI %)
Procedure: as §1, §2

[15] = test system: T-47D; assay: NCI one-dose assay, T-47D; assay type: cell-based; details: Homo sapiens, T47D; T-47D; 10 µM single dose, 48 h incubation; read-out: cell growth inhibition % (GI %)
Procedure: as §1, §2

For O=C1Nc2ccccc2C1=Cc1ccc(OCC(=O)c2ccc(Br)cc2)cc1 [Compound 6f, 3-{4-[2-(4-Bromophenyl)-2-oxoethoxy]benzylidene}indolin-2-one], the inhibition at 10 µM [1] was 24.5%, the “%inh VEGFR-2” value ([2]; conc 0.01 (unit not given)) was 12.36% and the “%inh VEGFR-2” value ([2]; conc 0.1 (unit not given)) was 36.13%. The “%inh VEGFR-2” value ([2]; conc 1 (unit not given)) was 73.94%, the “%inh VEGFR-2” value ([2]; conc 10 (unit not given)) was 88.74% and the IC50 ([2]; read-out: VEGFR-2 inhibition (IC50 ± SD)) was 5.75 ± 0.011 µM. The inhibition at 10 µM [3] was 63.7%, the inhibition at 10 µM ([4]; 786-0 (Renal Cancer), 10 uM single dose, read-out: Growth inhibition %) was 10.2% and the inhibition at 10 µM ([4]; ACHN (Renal Cancer), 10 uM single dose, read-out: Growth inhibition %) was 30%. It also gave an inhibition at 10 µM ([4]; BT-549 (Breast Cancer), 10 uM single dose, read-out: Growth inhibition %) of 43.4%, an inhibition at 10 µM ([4]; CAKI-1 (Renal Cancer), 10 uM single dose, read-out: Growth inhibition %) of 32.2% and an inhibition at 10 µM ([4]; CCRF-CEM (Leukemia), 10 uM single dose, read-out: Growth inhibition %) of 41.8%. It also gave an inhibition at 10 µM ([4]; COLO 205 (Colon Cancer), 10 uM single dose, read-out: Growth inhibition %) of 34.1%, an inhibition at 10 µM ([4]; DU-145 (Prostate Cancer), 10 uM single dose, read-out: Growth inhibition %) of 14.4% and an inhibition at 10 µM ([4]; EKVX (Non-Small Cell Lung Cancer), 10 uM single dose, read-out: Growth inhibition %) of 34.4%. For the same molecule, the inhibition at 10 µM ([4]; HCC-2998 (Colon Cancer), 10 uM single dose, read-out: Growth inhibition %) was 14.9%, the inhibition at 10 µM ([4]; HCT-15 (Colon Cancer), 10 uM single dose, read-out: Growth inhibition %) was 54.6% and the inhibition at 10 µM ([4]; HCT-116 (Colon Cancer), 10 uM single dose, read-out: Growth inhibition %) was 44.6%. The inhibition at 10 µM ([4]; HL-60(TB) (Leukemia), 10 uM single dose, read-out: Growth inhibition %) was 59.6%, the inhibition at 10 µM ([4]; HS 578T (Breast Cancer), 10 uM single dose, read-out: Growth inhibition %) was 15.6% and the inhibition at 10 µM ([4]; HT-29, HT29 (Colon Cancer), 10 uM single dose, read-out: Growth inhibition %) was 17.2%. The inhibition at 10 µM ([4]; IGROV-1, IGROV1 (Ovarian Cancer), 10 uM single dose, read-out: Growth inhibition %) was 21.7%, the inhibition at 10 µM ([4]; KM12 (Colon Cancer), 10 uM single dose, read-out: Growth inhibition %) was 22.7% and the inhibition at 10 µM ([4]; M14 (Melanoma), 10 uM single dose, read-out: Growth inhibition %) was 26.9%. It also gave an inhibition at 10 µM ([4]; MALME-3M (Melanoma), 10 uM single dose, read-out: Growth inhibition %) of 19%, an inhibition at 10 µM ([4]; MDA-MB-231, read-out: Growth inhibition %) of 17.8% and an inhibition at 10 µM ([4]; MDA-MB-435 (Melanoma), 10 uM single dose, read-out: Growth inhibition %) of 29.5%. For the same molecule, the inhibition at 10 µM ([4]; MDA-MB-468 (Breast Cancer), 10 uM single dose, read-out: Growth inhibition %) was 47.6%, the inhibition at 10 µM ([4]; NCI-H226 (Non-Small Cell Lung Cancer), 10 uM single dose, read-out: Growth inhibition %) was 28.4% and the inhibition at 10 µM ([4]; NCI-H322M (Non-Small Cell Lung Cancer), 10 uM single dose, read-out: Growth inhibition %) was 12.5%. The inhibition at 10 µM ([4]; NCI-H460 (Non-Small Cell Lung Cancer), 10 uM single dose, read-out: Growth inhibition %) was 41.5%, the inhibition at 10 µM ([4]; NCI-H522 (Non-Small Cell Lung Cancer), 10 uM single dose, read-out: Growth inhibition %) was 38.6% and the inhibition at 10 µM ([4]; OVCAR-3 (Ovarian Cancer), 10 uM single dose, read-out: Growth inhibition %) was 22.5%. It also gave an inhibition at 10 µM ([4]; OVCAR-4 (Ovarian Cancer), 10 uM single dose, read-out: Growth inhibition %) of 41.8%, an inhibition at 10 µM ([4]; OVCAR-8 (Ovarian Cancer), 10 uM single dose, read-out: Growth inhibition %) of 30.4% and an inhibition at 10 µM ([4]; PC-3 (Prostate Cancer), 10 uM single dose, read-out: Growth inhibition %) of 37.6%. For the same molecule, the inhibition at 10 µM ([4]; RPMI-8226 (Leukemia), 10 uM single dose, read-out: Growth inhibition %) was 50.8%, the inhibition at 10 µM ([4]; RXF 393 (Renal Cancer), 10 uM single dose, read-out: Growth inhibition %) was 32.4% and the inhibition at 10 µM ([4]; SF-295 (CNS Cancer), 10 uM single dose, read-out: Growth inhibition %) was 41.4%. The inhibition at 10 µM ([4]; SF-539 (CNS Cancer), 10 uM single dose, read-out: Growth inhibition %) was 18.5%, the inhibition at 10 µM ([4]; SK-MEL-2 (Melanoma), 10 uM single dose, read-out: Growth inhibition %) was 27.6% and the inhibition at 10 µM ([4]; SK-MEL-28 (Melanoma), 10 uM single dose, read-out: Growth inhibition %) was 19.9%. The inhibition at 10 µM ([4]; SN12C (Renal Cancer), 10 uM single dose, read-out: Growth inhibition %) was 37.3%, the inhibition at 10 µM ([4]; SNB-19 (CNS Cancer), 10 uM single dose, read-out: Growth inhibition %) was 20.4% and the inhibition at 10 µM ([4]; SW-620 (Colon Cancer), 10 uM single dose, read-out: Growth inhibition %) was 21.9%. The inhibition at 10 µM ([4]; U-251, U251 (CNS Cancer), 10 uM single dose, read-out: Growth inhibition %) was 28.5%, the inhibition at 10 µM ([4]; UACC-62 (Melanoma), 10 uM single dose, read-out: Growth inhibition %) was 47.4% and the inhibition at 10 µM ([4]; UACC-257 (Melanoma), 10 uM single dose, read-out: Growth inhibition %) was 26.4%. For the same molecule, the inhibition at 10 µM ([5]; Homo sapiens, MCF7, 48 h, read-out: cell growth inhibition % (GI %)) was 72.6%, the “cell growth inhibition % (GI %)” value [5] was 70.30% and the inhibition at 10 µM [6] was 91.5%. For the same molecule, the inhibition at 10 µM [7] was 20.4%, the inhibition at 10 µM [8] was 71.1% and the inhibition at 10 µM [9] was 71.1%. The inhibition at 10 µM [10] was 72.2%, the inhibition at 10 µM [11] was 49.1% and the inhibition at 10 µM [12] was 51.5%. It also gave an IC50 [13] of 14.8 ± 0.47 µM, an inhibition at 10 µM [14] of 41.6% and an inhibition at 10 µM [15] of 53%.
